These results are taken from a melting point compilation (Tetko et al.; mined from patent text by program, amines drawn as free bases though some values may be those of a salt).

`CC(=O)N1c2ccccc2-c2c([N+](=O)[O-])cnn2C1c1ccc(Cl)cc1` (stereo not drawn) came in with a melting point of 183 to 184 °C. To `CCn1c(=O)n(CC)c2cc3c(N4CCN(C(=O)Nc5ccc(Oc6ccccc6)cc5)CC4)nncc3cc21` belongs 125 to 128 °C; to `COc1ccc2c(n1)c(C=C[N+](=O)[O-])c1n2CCCO1`, 248 to 249 °C.

Consider `COc1ccc(CCc2ccc(NC(=O)c3ccc(C)cc3O)cc2)cc1OC`, for which the melting point was in the range of 162 to 164 °C.

Regarding `CC(C)C(C(=O)O)c1ccc(OCCNC(=O)C2Cc3ccccc3N2S(=O)(=O)c2ccc(-c3cc(C(F)(F)F)ccc3Cl)cc2)cc1` (stereo not drawn), the melting point was in the range of 84 to 88 °C.

For the compound `C[C@](N)(CO)CCc1ccc2oc(-c3ccc(O)cc3)nc2c1`, the melting point was in the range of 229 to 231 °C. To `CCCN(CCC)C1CCc2ccc(NC(=O)C=NO)cc2C1` (stereo not drawn) belongs 82 to 85 °C; to `Cc1nn(C)c2ncc3c(c12)CC(C)CC3` (stereo not drawn), 121 to 123 °C; to `CCOC(=O)[C@H](Cc1ccc(OS(=O)(=O)C(F)(F)F)cc1)NC(=O)OC(C)(C)C`, 47 to 49 °C. Then `O=[N+]([O-])c1ccccc1COc1cccc2cccnc12`, with 152 °C; and `CCC1(C)CC(S(=O)Cc2c(F)cccc2F)=NO1` (stereo not drawn), with < 30 °C; and `Cn1cc(-c2ncc(OC3SCC(O)C(O)C3O)cc2F)cn1` (stereo not drawn), with 206 °C.

As to `Cc1ncc(CN2C(=O)c3ccccc3C2=O)n1-c1ccc(Cl)cc1C(=O)c1ccccc1F`, the melting point lay within 192 to 196 °C. Then `Cc1cc(O)c(SCCc2ccccc2)c(=O)o1`, with 100 to 101 °C; and `CCc1[nH]c(=S)n(Nc2cccc(C)c2)c1-c1ccccc1`, with 202 to 204 °C; and `Oc1cccc2c1cc(C1=NCCN1)n2-c1ccccc1`, with > 270 °C.

In turn, `CCNC(=O)Oc1cccc(NC(=O)C=C(C)OC)c1` gave a melting point of 183 °C. `c1ccc2c(N3CCCCC3)nc(N3CCCCC3)nc2c1` displayed a melting point of 128 to 131 °C. Then `CCOC(=O)Cc1csc(NC(=O)C(N)Cc2cccs2)n1` (stereo not drawn), with 98 to 102 °C; and `Cc1c(-c2ccc(O)c(F)c2)sc(C=O)c1-c1ccc(O)c(Cl)c1`, with 252 to 254 °C; and `CC(=O)Nc1ccccc1C(=O)NCCN1[C@H](C)Cc2ccsc2[C@@H]1C` (relative stereo), with 108 to 112 °C. To `Clc1ccnc2[nH]c3ccc(Br)cc3c12` belongs > 220 °C; to `COC(=O)[C@@H](CCSC)NC(=O)C[C@H]1O[C@H](c2cccc(OC)c2OC)c2cc(Cl)ccc2N(CC(C)(C)CO)C1=O`, 142 to 143 °C. Compound `O=C(c1ccc(-c2ccnnc2)cc1)N1CCN(S(=O)(=O)c2cc3cc(Cl)ccc3[nH]2)CC1` registered a melting point of 170 to 172 °C. Regarding `CN1C(=O)C(NC(=O)CC23CC4CC(CC(C)(C4)C2)C3)N=C(c2ccccc2)c2ccccc21` (racemic), the melting point was 195 to 196 °C. To `CC(C)(C)NC(=O)[C@@H]1CCCN1C(=O)[C@@H](O)[C@H](Cc1ccccc1)NC(=O)[C@H](CC(N)=O)NC(=O)COc1ccc(NC(=O)OCc2ccccc2)cc1` belongs 103 to 105 °C; to `Cc1cc2c(cc1C)N=C(c1ccc(-n3c(C)nc4cnccc43)cc1)CC(N)=N2`, 299 to 302 °C. Then `COC(=O)c1nc2c(CBr)cccc2n1COCC[Si](C)(C)C`, with 85 to 86 °C; and `CC(C)NC(=S)N1CCc2[nH]cnc2C1C(C)C` (stereo not drawn), with 203 °C. Then `CCOC(=O)C1C(=O)Nc2ccccc2SC1c1ccc(C)cc1` (stereo not drawn), with 185 °C; and `COC1(OC)C(NC(=O)c2ccccc2O)=CC(=O)C2OC21` (stereo not drawn), with 147 to 149 °C; and `Cc1cn(Cc2ccccc2)c(=O)[nH]c1=O`, with 170 to 173 °C. With `CCNC(=O)/C=C1\CCc2ccc(F)cc21`, the melting point was in the range of 125 to 127 °C.

The term melting point denotes the temperature of the solid-liquid transition.
